Results on 19 compounds are retold here after ChEMBL document CHEMBL1139984, “Potent and selective biphenyl azole inhibitors of adipocyte fatty acid binding protein (aFABP)” (Bioorg Med Chem Lett, 2007).

The species entered for one experiment is Homo sapiens. Kind of experiment: Selectivity for aFABP over mFABP by 1,8-ANS fluorescence based-assay.
In experiment [1] the target is T1, Fatty acid-binding protein, adipocyte (Homo sapiens, UniProt P15090). Kind of experiment: Displacement of 1,8-ANS from aFABP by fluorescence based-assay.
T1 sequence (P15090 whole entry): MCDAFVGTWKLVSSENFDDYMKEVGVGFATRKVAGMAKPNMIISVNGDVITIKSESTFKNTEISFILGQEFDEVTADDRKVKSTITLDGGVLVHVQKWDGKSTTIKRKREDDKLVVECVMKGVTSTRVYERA
In experiment [2] the target is T1, Fatty acid-binding protein, adipocyte. Kind of experiment: Displacement of [3H]2,3-bis[(2,4-dichlorobenzyl)oxy]benzoic acid from aFABP.
The target in experiment [3] is Fatty acid-binding protein, heart (Homo sapiens, UniProt P05413). Kind of experiment: Displacement of 1,8-ANS from mFABP by fluorescence based-assay.
Fatty acid-binding protein, heart, sequence (P05413 whole entry): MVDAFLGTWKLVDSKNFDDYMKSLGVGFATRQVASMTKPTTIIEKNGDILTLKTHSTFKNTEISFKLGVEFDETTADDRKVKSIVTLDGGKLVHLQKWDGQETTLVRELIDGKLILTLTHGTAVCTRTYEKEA
For experiment [4], the target named is Fatty acid-binding protein 5 (Homo sapiens, UniProt Q01469). Kind of experiment: Displacement of 1,8-ANS from eFABP by fluorescence based-assay.
Fatty acid-binding protein 5, sequence (Q01469 whole entry): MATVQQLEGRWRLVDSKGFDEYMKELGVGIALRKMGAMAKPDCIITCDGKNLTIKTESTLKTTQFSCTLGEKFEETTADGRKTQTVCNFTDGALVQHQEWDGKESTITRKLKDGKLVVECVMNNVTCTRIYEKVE
The target in experiment [5] is T1, Fatty acid-binding protein, adipocyte. Kind of experiment: Binding affinity to aFABP.

As a reminder, the Ki is a measure of affinity in units of concentration, obtained from inhibition or displacement. A higher Ki goes with a looser hold on the target. On to `O=C(O)COc1cccc(-c2ccccc2-c2nc(-c3ccccc3)c(-c3ccccc3)o2)c1`, for which the Ratio Ki in the experiment filed under Homo sapiens turned out to be 170. Also, the inhibitory constant (Ki) is 6 nM in experiment [1], 95 nM in experiment [2], more than 1000 nM in experiment [3] and more than 2000 nM in experiment [4].

Usually Kd stands for the equilibrium constant for the complex coming apart. Read a high Kd as weaker binding. As for `[3H]c1c(Cl)ccc(COc2cccc(C(=O)O)c2OCc2ccc(Cl)c([3H])c2Cl)c1Cl`, the Ki in experiment [1] worked out at 2 nM; in experiment [3] it was 4 nM; in experiment [4] it was 2 nM. For the same compound, the dissociation constant (Kd) in experiment [5] amounted to 21 nM.

Take `CCn1c(-c2ccccc2-c2cccc(NCC(=O)O)c2)nc(-c2ccccc2)c1-c1ccccc1`: the Ki in experiment [1] is 3.4 nM; in experiment [2] it was 13 nM; in experiment [3] it was more than 1000 nM; in experiment [4], more than 2000 nM.

In the case of `O=C(O)COc1cccc(-c2ccccc2-c2nc(-c3ccccc3)c(-c3ccccc3)[nH]2)c1`, the Ki was 9.3 nM in experiment [1], more than 1000 nM in experiment [3] and more than 2000 nM in experiment [4].

`CCCCCCCC/C=C\CCCCCCCC(=O)O` [OLEIC ACID]: the Ki in experiment [4] is 248 nM.

`O=C(O)CCCCOc1ccccc1-c1nc(-c2ccccc2)c(-c2ccccc2)o1`: the Ki was 58 nM in experiment [1], 32 nM in experiment [3] and more than 2000 nM in experiment [4].

As to `O=C(O)COc1cccc(-c2ccccc2-c2nc(-c3ccccc3)c(-c3ccccc3)n2CCF)c1`, the Ki in experiment [1] is less than 2 nM; in experiment [2], 8.7 nM; in experiment [3] it was more than 1000 nM; in experiment [4], more than 2000 nM.

Regarding `CCc1c(-c2ccccc2)c(-c2ccccc2)nn1-c1ccccc1-c1cccc(C(=O)O)c1`, the Ki in experiment [1] was 650 nM; in experiment [3] it was 110 nM.

`O=C(O)CNc1cccc(-c2ccccc2-c2nc(-c3ccccc3)c(-c3ccccc3)n2CC(=O)O)c1`: the Ki was more than 2000 nM in experiment [1], more than 1000 nM in experiment [3] and more than 2000 nM in experiment [4].

For the compound `CCc1c(-c2ccccc2-c2cccc(OCC(=O)O)c2)oc(-c2ccccc2)c1-c1ccccc1`, the Ki is 3.5 nM in experiment [1], 32 nM in experiment [2] and 220 nM in experiment [3].

Turning to `O=C(O)COc1cccc(-c2ccccc2-c2cc(-c3ccccc3)c(-c3ccccc3)o2)c1`, the Ki is 36 nM in experiment [1], more than 1000 nM in experiment [3] and more than 2000 nM in experiment [4].

As to `Cn1c(-c2ccccc2-c2cccc(NCC(=O)O)c2)nc(-c2ccccc2)c1-c1ccccc1`, the Ki in experiment [1] was 2.7 nM; in experiment [2] it was 48 nM; in experiment [3], more than 1000 nM; in experiment [4], more than 2000 nM.

As to `O=S(=O)(O)c1cccc2cccc(Nc3ccccc3)c12`, the Kd in experiment [5] turned out to be 150 nM. In experiment [2], affinity was put at a Ki of 1000 nM.

As to `CCn1c(-c2ccccc2-c2cccc(OCC(=O)O)c2)nc(-c2ccccc2)c1-c1ccccc1`, the Ki is less than 2 nM in experiment [1], 3.3 nM in experiment [2] and more than 1000 nM in experiment [3].

In the case of `O=C(O)COc1cccc(-c2ccccc2-c2cc(-c3ccccc3)c(-c3ccccc3)[nH]2)c1`, the Ki in experiment [1] was 12 nM; in experiment [3], more than 1000 nM; in experiment [4], more than 2000 nM.

`O=C(O)CNc1cccc(-c2ccccc2-c2nc(-c3ccccc3)c(-c3ccccc3)[nH]2)c1`: the Ki in experiment [1] was 18 nM; in experiment [2] it was 300 nM; in experiment [3] it was more than 1000 nM; in experiment [4] it was more than 2000 nM.

As for `CC(C)Cn1c(-c2ccccc2-c2cccc(NCC(=O)O)c2)nc(-c2ccccc2)c1-c1ccccc1`, the Ki in experiment [1] is 130 nM; in experiment [3], more than 1000 nM; in experiment [4], more than 2000 nM.

Take `CCc1c(-c2ccccc2)c(-c2ccccc2)nn1-c1ccccc1-c1cccc(C(O)C(=O)O)c1` (stereo not given): the Ki in experiment [1] was 28 nM; in experiment [3], 360 nM; in experiment [4], 550 nM.

Consider `Cn1c(-c2ccccc2-c2cccc(OCC(=O)O)c2)nc(-c2ccccc2)c1-c1ccccc1`, for which the Ki is less than 2 nM in experiment [1], 13 nM in experiment [2] and more than 1000 nM in experiment [3].
